Data: patent publication US9994556B2, “Triazole modified coumarin and biphenyl amide-based HSP90 inhibitors” (THE UNIVERSITY OF KANSAS, priority 2014, dated 2018)
Where two headings read alike, the source gives them in different places.

Experiments:
Format in all cases: cell-based
[1] = tested on: MCF-7 cells; assay: MTS/PMS cell viability assay, MCF-7; details: Homo sapiens, MCF7, 72 hr, mean ± standard deviation, read-out: IC50 MCF-7
Method: (§1) a) MTS/PMS Cell Viability Assay (SKBr3 and MCF-7 Cells)
(§2) Cells were maintained in a 1:1 mixture of Advanced DMEM/F12 (Gibco) supplemented with non-essential amino acids, L-glutamine (2 mM), streptomycin (500 μg/mL), penicillin (100 units/mL), and 10% FBS. Cells were grown to confluence in a humidified atmosphere (37° C., 5% CO2), seeded (2000/well, 100 μL) in 96-well plates, and allowed to attach overnight. Compound at varying concentrations in DMSO (1% DMSO final concentration) was added, and cells were returned to the incubator for 72 hr. At 72 hr, the number of viable cells was determined using an MTS/PMS cell proliferation kit (Promega) per the manufacturer's instructions. Cells incubated in 1% DMSO were used at 100% proliferation, and values were adjusted accordingly. IC50 values were calculated from separate experiments performed in triplicate using GraphPad Prism.

[2] = tested on: JMAR cell line; assay: Promega CellTiter-Glo (CTG) luminescent assay, JMAR; details: 72 hr, mean ± standard deviation
Method: (§3) b) Promega CellTiter-Glo (CTG) Luminescent Assay
(§4) Antiproliferative activities against MDA-MB-468LN, MDA1986 and JMAR cell lines were performed with 384-well white plates with the Promega CellTiter-Glo (CTG) luminescent assay with 72 hr compound treatment. Data analysis was performed using GraphPad Prism. Selected data were further checked with MTS/PMS cell viability assay with 96-well plates, which correlated well with Promega CellTiter-Glo luminescent assay.

[3] = tested on: LNCaP cells; assay: Sulforhodamine B assay, LNCaP; details: Homo sapiens, mean ± standard deviation
Method: (§5) c) Sulforhodamine B Assay
(§6) The sulforhodamine B assay is used to measure drug-induced cytotoxicity and cell proliferation for large-scale drug-screening applications. Its principle is based on the ability of the protein dye sulforhodamine B to bind electrostatically on pH dependent protein basic amino acid residues of trichloroacetic acid-fixed cells. The aim is to evaluate samples showing selective growth inhibition or cell killing of particular tumor cell lines.
(§7) The SRB assay is performed by treating cells using a 10 point dose-response curve. The cells are fixed with trichloroacetic acid solution and stained with sulforhodamine B dye. The stained cells are then solubilized with 10 mM Tris buffer and read for absorbance at 565 nm.
(§8) Percentage growth is calculated at each of the drug concentration levels using the absorbance raw data.
(§9) Percentage growth inhibition is calculated as: [(Ti−Tz)/(C−Tz)]×100 for concentrations for which Ti≥Tz. [(Ti−Tz)/(Tz)]×100 for concentrations for which Ti<Tz.
(§10) Ti=Absorbance of wells at a given drug concentration level.
(§11) Tz=Absorbance time zero wells
(§12) C=Absorbance of untreated wells (media and cells only)
(§13) After growth inhibition values have been calculated, the data is plotted on Graphpad Prism software. Data is entered and plotted on a sigmoidal dose-response curve using non-linear regression.

[4] = tested on: SKBr3 cells; assay: MTS/PMS cell viability assay, SKBr3; details: Homo sapiens, SK-BR-3, 72 hr, mean ± standard deviation, read-out: IC50 SKBr3
Method: as §1, §2

[5] = tested on: PC3-MM2 cells; assay: Sulforhodamine B assay, PC3-MM2; details: Homo sapiens, PC3MM2, mean ± standard deviation
Method: as §5, §6, §7, §8, §9, §10, §11, §12, §13

[6] = tested on: MDA-MB-468LN cell line; assay: Promega CellTiter-Glo (CTG) luminescent assay, MDA-MB-468LN; details: Homo sapiens, 72 hr, mean ± standard deviation
Method: as §3, §4

[7] = tested on: MDA1986 cell line; assay: Promega CellTiter-Glo (CTG) luminescent assay, MDA1986; details: 72 hr, mean ± standard deviation, read-out: IC50 MDA1986
Method: as §3, §4

[8] = Table 1 coumarin-based triazoles
[9] = Table 1 coumarin-based triazoles, at least two experiments in triplicate
[10] = Table 2 biphenyl triazole analogues

Row | SMILES | IC50 [1, 8] [nM] | IC50 [2, 8] [nM] | IC50 [3, 8] [nM] | IC50 [4, 9] [nM] | IC50 [5, 8] [nM] | IC50 [6, 8] [nM] | IC50 [7, 8] [nM] | IC50 [1, 10] [nM] | IC50 [2, 10] [nM] | IC50 [3, 10] [nM] | IC50 [4, 10] [nM] | IC50 [5, 10] [nM] | IC50 [6, 10] [nM] | IC50 [7, 10] [nM]
1 | Cc1c(OC2CCN(C)CC2)ccc2cc(NC(=O)c3cn(Cc4ccc([N+](=O)[O-])cc4)nn3)c(=O)oc12 [4l, 1-(4-Nitrobenzyl)-N-(8-methyl-7-((1-methylpiperidin-4-yl)oxy)-2-oxo-2H-chromen-3-yl)-1H-1,2,3-triazole-4-carboxamide] | 640 | 260 ± 340 | 1280 ± 710 | 380 | 2490 ± 320 | 810 ± 230 | 180 ± 220 | – | – | – | – | – | – | –
2 | CN1CCC(Oc2ccc(-c3ccc(NC(=O)c4cn(Cc5ccccc5Cl)nn4)cc3)cc2)CC1 [5m, 1-(2-Chlorobenzyl)-N-(4′-((1-methylpiperidin-4-yl)oxy)-[1,1′-biphenyl]-4-yl)-1H-1,2,3-triazole-4-carboxamide] | – | – | – | – | – | – | – | 380 ± 30 | 650 | 610 ± 340 | 340 ± 40 | 1040 ± 510 | 220 ± 30 | 810 ± 50
3 | CN1CCC(Oc2ccc(-c3ccc(NC(=O)c4cn(Cc5ccc(C(C)(C)C)cc5)nn4)cc3)cc2)CC1 [5h, 1-(4-tert-Butylbenzyl)-N-(4′-((1-methylpiperidin-4-yl)oxy)-[1,1′-biphenyl]-4-yl)-1H-1,2,3-triazole-4-carboxamide] | – | – | – | – | – | – | – | 10500 ± 400 | 3490 ± 2050 | 1010 ± 1390 | 3720 ± 680 | > 100000 | 2610 ± 760 | 2340 ± 1810
4 | Cc1c(OC2CCN(C)CC2)ccc2cc(NC(=O)c3cn(Cc4ccc(F)cc4)nn3)c(=O)oc12 [4m, 1-(4-Fluorobenzyl)-N-(8-methyl-7-((1-methylpiperidin-4-yl)oxy)-2-oxo-2H-chromen-3-yl)-1H-1,2,3-triazole-4-carboxamide] | 1340 ± 190 | 2380 ± 5380 | 3310 | 1080 ± 10 | 8820 ± 1140 | 2600 ± 6120 | 1770 ± 4100 | – | – | – | – | – | – | –
5 | CN1CCC(Oc2ccc(-c3ccc(NC(=O)c4cn(CCc5ccccc5)nn4)cc3)cc2)CC1 [5c, N-(4′-((1-methylpiperidin-4-yl)oxy)-[1,1′-biphenyl]-4-yl)-1l-phenethyl-1H-1,2,3-triazole-4-carboxamide] | – | – | – | – | – | – | – | 380 ± 100 | 580 ± 460 | 430 ± 220 | 190 ± 20 | 830 ± 340 | 360 ± 40 | 100 ± 230
6 | Cc1ccc(Cn2cc(C(=O)Nc3cc4ccc(OC5CCN(C)CC5)c(C)c4oc3=O)nn2)cc1 [4i, 1-(4-Methylbenzyl)-N-(8-methyl-7-((1-methylpiperidin-4-yl)oxy)-2-oxo-2H-chromen-3-yl)-1H-1,2,3-triazole-4-carboxamide] | 1500 ± 190 | 1800 ± 950 | 7240 ± 1020 | 1210 ± 70 | 7320 ± 5440 | 2400 ± 250 | 1500 ± 200 | – | – | – | – | – | – | –
7 | Cc1c(OC2CCN(C)CC2)ccc2cc(NC(=O)c3cn(Cc4ccc(Cl)cc4)nn3)c(=O)oc12 [4g, 1-(4-Chlorobenzyl)-N-(8-methyl-7-((1-methylpiperidin-4-yl)oxy)-2-oxo-2H-chromen-3-yl)-1H-1,2,3-triazole-4-carboxamide] | 1440 ± 310 | 1700 ± 200 | 4650 ± 710 | 1140 ± 190 | 3670 ± 1380 | 2200 ± 300 | 1700 ± 520 | – | – | – | – | – | – | –
8 | Cc1c(OC2CCN(C)CC2)ccc2cc(NC(=O)c3cn(-c4ccc(Br)cc4)nn3)c(=O)oc12 [4d, 1-(4-Bromophenyl)-N-(8-methyl-7-((1-methylpiperidin-4-yl)oxy)-2-oxo-2H-chromen-3-yl)-1H-1,2,3-triazole-4-carboxamide] | 5070 ± 1860 | 3600 ± 630 | 15200 ± 9190 | 1380 ± 50 | 3810 ± 4990 | 2800 ± 500 | 2900 ± 330 | – | – | – | – | – | – | –
9 | Cc1c(OC2CCN(C)CC2)ccc2cc(NC(=O)c3cn(Cc4ccc(Br)cc4)nn3)c(=O)oc12 [4h, 1-(4-Bromobenzyl)-N-(8-methyl-7-((1-methylpiperidin-4-yl)oxy)-2-oxo-2H-chromen-3-yl)-1H-1,2,3-triazole-4-carboxamide] | 1360 ± 80 | 1600 ± 310 | 4960 ± 670 | 730 ± 10 | 3800 ± 1420 | 2100 ± 600 | 2000 ± 500 | – | – | – | – | – | – | –
10 | CN1CCC(Oc2ccc(-c3ccc(NC(=O)c4cn(Cc5ccc(F)cc5)nn4)cc3)cc2)CC1 [5j, 1-(4-Fluorobenzyl)-N-(4′-((1-methylpiperidin-4-yl)oxy)-[1,1′-biphenyl]-4-yl)-1H-1,2,3-triazole-4-carboxamide] | – | – | – | – | – | – | – | 1040 ± 80 | 1390 ± 520 | 1640 ± 970 | 720 ± 180 | 2810 ± 1820 | 1090 ± 230 | 930 ± 340
11 | CN1CCC(Oc2ccc(-c3ccc(NC(=O)c4cn(Cc5cccc(Cl)c5)nn4)cc3)cc2)CC1 [5k, 1-(3-Chlorobenzyl)-N-(4′-((1-methylpiperidin-4-yl)oxy)-[1,1′-biphenyl]-4-yl)-1H-1,2,3-triazole-4-carboxamide] | – | – | – | – | – | – | – | 340 ± 20 | 270 ± 40 | 120 ± 100 | 390 ± 10 | 350 ± 140 | 170 ± 20 | 170 ± 120
12 | Cc1c(OC2CCN(C)CC2)ccc2cc(NC(=O)c3cn(Cc4ccccc4Cl)nn3)c(=O)oc12 [4p, 1-(2-Chlorobenzyl)-N-(8-methyl-7-((1-methylpiperidin-4-yl)oxy)-2-oxo-2H-chromen-3-yl)-1H-1,2,3-triazole-4-carboxamide] | 990 ± 80 | 3700 ± 850 | > 100000 | 1300 ± 70 | 6660 ± 5440 | 2100 ± 520 | 3200 ± 1370 | – | – | – | – | – | – | –
13 | CN1CCC(Oc2ccc(-c3ccc(NC(=O)c4cn(Cc5ccc(Cl)cc5)nn4)cc3)cc2)CC1 [5d, 1-(4-Chlorobenzyl)-N-(4′-((1-methylpiperidin-4-yl)oxy)-[1, 1′-biphenyl]-4-yl)-1H-1,2,3-triazole-4-carboxamide] | – | – | – | – | – | – | – | 440 ± 40 | 2300 ± 820 | 1590 ± 780 | 320 ± 100 | 660 ± 210 | 740 ± 190 | 1300 ± 370
14 | Cc1c(OC2CCN(C)CC2)ccc2cc(NC(=O)c3cn(CCCc4ccccc4)nn3)c(=O)oc12 [4s, N-(8-methyl-7-((1-methylpiperidin-4-yl)oxy)-2-oxo-2H-chromen-3-yl)-1-(3-phenylpropyl)-1H-1,2,3-triazole-4-carboxamide] | 1650 ± 30 | – | – | 1730 ± 50 | – | – | – | – | – | – | – | – | – | –
